Measurements reported in the NIST ThermoML archive (doi:10.1016/j.jct.2012.09.026).

Assay: xn = mol fraction of the nth substance listed
Conditions: Liquid

CC(C)(C)O [2-methylpropan-2-ol] + O
mass density [kg/m3]
Conditions	278.15 K	288.15 K	298.15 K	308.15 K	323.15 K
101.3 kPa, Vibrating tube method, x1 = 0.0248	986.88	985.26	982.45	978.65	971.52
101.3 kPa, Vibrating tube method, x1 = 0.04241	981.87	978.77	974.54	969.43	960.77
101.3 kPa, Vibrating tube method, x1 = 0.05887	977	971.81	965.94	959.67	949.57
101.3 kPa, Vibrating tube method, x1 = 0.08929	963.35	956.03	949.01	941.57	930.6
101.3 kPa, Vibrating tube method, x1 = 0.1125	951.21	943.7	936.18	928.56	916.92
101.3 kPa, Vibrating tube method, x1 = 0.1566	929.91	922.09	914.18	906.33	893.97
101.3 kPa, Vibrating tube method, x1 = 0.208	910.57	902.66	894.55	886.22	873.34
101.3 kPa, Vibrating tube method, x1 = 0.3023	882.17	874	865.6	856.97	843.45
101.3 kPa, Vibrating tube method, x1 = 0.4045	860.22	851.78	843.11	834.17	820.18
101.3 kPa, Vibrating tube method, x1 = 0.4827	847.15	838.7	830.01	820.93	806.67
101.3 kPa, Vibrating tube method, x1 = 0.5344	839.61	830.98	822.05	812.83	798.37
101.3 kPa, Vibrating tube method, x1 = 0.6029	831.08	822.27	813.22	803.86	789.18
101.3 kPa, Vibrating tube method, x1 = 0.726	818.36	809.38	800.1	790.54	775.51
101.3 kPa, Vibrating tube method, x1 = 0.7999	812.56	803.46	794.07	784.37	768.91
101.3 kPa, Vibrating tube method, x1 = 0.8711	–	797.8	788.3	778.45	763
101.3 kPa, Vibrating tube method, x1 = 0.9183	–	794.66	785.07	775.09	759.52
101.3 kPa, Vibrating tube method, x1 = 0.9574	–	–	782.74	772.63	756.76
101.3 kPa, Vibrating tube method, x1 = 1	–	–	–	770.14	753.94
10000 kPa, Constant-volume piezometry, x1 = 0.0248	990.83	989.1	986.4	982.6	975.58
10000 kPa, Constant-volume piezometry, x1 = 0.04241	985.44	982.35	978.4	973.49	965.03
10000 kPa, Constant-volume piezometry, x1 = 0.05887	980.38	975.51	969.98	963.89	954.03
10000 kPa, Constant-volume piezometry, x1 = 0.08929	967.1	960.11	953.39	946.1	935.46
10000 kPa, Constant-volume piezometry, x1 = 0.1125	955.35	948.15	940.81	933.31	922.12
10000 kPa, Constant-volume piezometry, x1 = 0.1566	934.55	927.05	919.21	911.53	899.59
10000 kPa, Constant-volume piezometry, x1 = 0.208	915.88	908.09	899.99	891.88	879.35
10000 kPa, Constant-volume piezometry, x1 = 0.3023	888.19	880.07	871.71	863.34	850.13
10000 kPa, Constant-volume piezometry, x1 = 0.4045	866.8	858.48	849.93	841.23	827.69
10000 kPa, Constant-volume piezometry, x1 = 0.4827	854.18	845.78	837.26	828.5	814.74
10000 kPa, Constant-volume piezometry, x1 = 0.5344	–	838.32	829.58	820.71	806.74
10000 kPa, Constant-volume piezometry, x1 = 0.6029	–	–	821.11	812.19	797.93
10000 kPa, Constant-volume piezometry, x1 = 0.726	–	–	–	799.44	784.92
10000 kPa, Constant-volume piezometry, x1 = 0.7999	–	–	–	–	778.73
10000 kPa, Constant-volume piezometry, x1 = 0.8711	–	–	–	–	773.1
10000 kPa, Constant-volume piezometry, x1 = 0.9183	–	–	–	–	769.84
10000 kPa, Constant-volume piezometry, x1 = 0.9574	–	–	–	–	767.23
10000 kPa, Constant-volume piezometry, x1 = 1	–	–	–	–	764.58
25000 kPa, Constant-volume piezometry, x1 = 0.0248	996.63	994.94	992.33	988.54	981.52
25000 kPa, Constant-volume piezometry, x1 = 0.04241	990.81	987.9	984.21	979.65	971.36
25000 kPa, Constant-volume piezometry, x1 = 0.05887	985.66	981.16	975.95	970.24	960.64
25000 kPa, Constant-volume piezometry, x1 = 0.08929	972.88	966.27	959.85	952.8	942.55
25000 kPa, Constant-volume piezometry, x1 = 0.1125	961.59	954.74	947.61	940.3	929.62
25000 kPa, Constant-volume piezometry, x1 = 0.1566	941.34	934.17	926.51	919.1	907.6
25000 kPa, Constant-volume piezometry, x1 = 0.208	923.3	915.74	907.83	900.03	887.94
25000 kPa, Constant-volume piezometry, x1 = 0.3023	896.35	888.45	880.25	872.28	859.69
25000 kPa, Constant-volume piezometry, x1 = 0.4045	875.55	867.58	859.23	850.99	838.16
25000 kPa, Constant-volume piezometry, x1 = 0.4827	863.45	855.38	847.01	838.84	825.82
25000 kPa, Constant-volume piezometry, x1 = 0.5344	–	848.18	839.65	831.4	818.13
25000 kPa, Constant-volume piezometry, x1 = 0.6029	–	–	831.63	823.36	809.81
25000 kPa, Constant-volume piezometry, x1 = 0.726	–	–	–	811.34	797.59
25000 kPa, Constant-volume piezometry, x1 = 0.7999	–	–	–	–	791.84
25000 kPa, Constant-volume piezometry, x1 = 0.8711	–	–	–	–	786.62
25000 kPa, Constant-volume piezometry, x1 = 0.9183	–	–	–	–	783.6
25000 kPa, Constant-volume piezometry, x1 = 0.9574	–	–	–	–	781.19
25000 kPa, Constant-volume piezometry, x1 = 1	–	–	–	–	778.73
50000 kPa, Constant-volume piezometry, x1 = 0.0248	1005.84	1004.75	1002.03	998.04	991.13
50000 kPa, Constant-volume piezometry, x1 = 0.04241	999.56	997.38	993.67	989.37	981.39
50000 kPa, Constant-volume piezometry, x1 = 0.05887	994.6	990.56	985.61	980.26	971.01
50000 kPa, Constant-volume piezometry, x1 = 0.08929	982.34	976.26	970.06	963.39	953.61
50000 kPa, Constant-volume piezometry, x1 = 0.1125	971.7	965.1	958.37	951.52	941.17
50000 kPa, Constant-volume piezometry, x1 = 0.1566	952.1	945.1	937.98	931.05	920.03
50000 kPa, Constant-volume piezometry, x1 = 0.208	934.42	927.25	920	912.67	901.32
50000 kPa, Constant-volume piezometry, x1 = 0.3023	908.07	900.8	893.22	885.81	874.39
50000 kPa, Constant-volume piezometry, x1 = 0.4045	887.79	880.62	872.83	865.39	853.64
50000 kPa, Constant-volume piezometry, x1 = 0.4827	876.1	869.2	861.18	853.93	841.81
50000 kPa, Constant-volume piezometry, x1 = 0.5344	–	862.25	854.14	846.76	834.43
50000 kPa, Constant-volume piezometry, x1 = 0.6029	–	–	846.6	839.04	826.63
50000 kPa, Constant-volume piezometry, x1 = 0.726	–	–	–	827.94	815.19
50000 kPa, Constant-volume piezometry, x1 = 0.7999	–	–	–	–	809.91
50000 kPa, Constant-volume piezometry, x1 = 0.8711	–	–	–	–	805.23
50000 kPa, Constant-volume piezometry, x1 = 0.9183	–	–	–	–	802.47
50000 kPa, Constant-volume piezometry, x1 = 0.9574	–	–	–	–	800.32
50000 kPa, Constant-volume piezometry, x1 = 1	–	–	–	–	798.2
75000 kPa, Constant-volume piezometry, x1 = 0.0248	1014.43	1014.19	1011.23	1006.97	1000.34
75000 kPa, Constant-volume piezometry, x1 = 0.04241	1007.73	1006.42	1002.58	998.3	990.63
75000 kPa, Constant-volume piezometry, x1 = 0.05887	1002.96	999.48	994.71	989.51	980.49
75000 kPa, Constant-volume piezometry, x1 = 0.08929	991.23	985.6	979.52	973.24	963.7
75000 kPa, Constant-volume piezometry, x1 = 0.1125	981	974.66	968.17	961.84	951.62
75000 kPa, Constant-volume piezometry, x1 = 0.1566	961.89	955.07	948.39	941.93	931.22
75000 kPa, Constant-volume piezometry, x1 = 0.208	944.32	937.59	930.82	924	913.19
75000 kPa, Constant-volume piezometry, x1 = 0.3023	918.19	911.52	904.74	897.73	887.1
75000 kPa, Constant-volume piezometry, x1 = 0.4045	898.01	891.74	884.67	877.69	866.87
75000 kPa, Constant-volume piezometry, x1 = 0.4827	886.19	880.7	873.35	866.59	855.33
75000 kPa, Constant-volume piezometry, x1 = 0.5344	–	873.92	866.45	859.52	848.15
75000 kPa, Constant-volume piezometry, x1 = 0.6029	–	–	859.03	851.9	840.58
75000 kPa, Constant-volume piezometry, x1 = 0.726	–	–	–	841.27	829.57
75000 kPa, Constant-volume piezometry, x1 = 0.7999	–	–	–	–	824.52
75000 kPa, Constant-volume piezometry, x1 = 0.8711	–	–	–	–	820.17
75000 kPa, Constant-volume piezometry, x1 = 0.9183	–	–	–	–	817.6
75000 kPa, Constant-volume piezometry, x1 = 0.9574	–	–	–	–	815.64
75000 kPa, Constant-volume piezometry, x1 = 1	–	–	–	–	813.79
100000 kPa, Constant-volume piezometry, x1 = 0.0248	1022.28	1022.71	1019.69	1015.14	1009.12
100000 kPa, Constant-volume piezometry, x1 = 0.04241	1014.85	1014.15	1010.64	1006.32	998.9
100000 kPa, Constant-volume piezometry, x1 = 0.05887	1009.82	1007.36	1003.04	997.93	989.01
100000 kPa, Constant-volume piezometry, x1 = 0.08929	999.16	993.91	988.13	982.34	972.81
100000 kPa, Constant-volume piezometry, x1 = 0.1125	988.91	983.36	976.75	970.82	961.04
100000 kPa, Constant-volume piezometry, x1 = 0.1566	970.36	964.36	957.51	951.42	941.06
100000 kPa, Constant-volume piezometry, x1 = 0.208	953.46	947.22	940.04	933.91	923.15
100000 kPa, Constant-volume piezometry, x1 = 0.3023	927.69	921.12	915	908.14	897.26
100000 kPa, Constant-volume piezometry, x1 = 0.4045	907.4	901.88	895.56	888.2	878.13
100000 kPa, Constant-volume piezometry, x1 = 0.4827	895.03	890.44	884.31	877.25	867.33
100000 kPa, Constant-volume piezometry, x1 = 0.5344	–	883.95	877.51	870.36	860.41
100000 kPa, Constant-volume piezometry, x1 = 0.6029	–	–	869.84	863.06	852.9
100000 kPa, Constant-volume piezometry, x1 = 0.726	–	–	–	852.47	842.31
100000 kPa, Constant-volume piezometry, x1 = 0.7999	–	–	–	–	837.55
100000 kPa, Constant-volume piezometry, x1 = 0.8711	–	–	–	–	833.28
100000 kPa, Constant-volume piezometry, x1 = 0.9183	–	–	–	–	830.96
100000 kPa, Constant-volume piezometry, x1 = 0.9574	–	–	–	–	829.12
100000 kPa, Constant-volume piezometry, x1 = 1	–	–	–	–	827.34
